Reference: patent publication US12441736B2, “KIF18A inhibitors” (AMGEN INC., priority 2018, dated 2025)

Molecular target: T1, Recombinant human KIF18A (1-467 His-tagged) protein (Homo sapiens, UniProt Q8NI77)
T1 construct: Recombinant human KIF18A (1-467 His-tagged) protein; His; made in house
Test: KIF18A Enzyme Assay: microtubule-stimulated ATPase activity (ADP-Glo)
Format: biochemical
Conditions: 30 nM KIF18A, 30 μg/mL pig microtubules, 75 μM ATP, ADP-Glo luminescence
Procedure, shortened: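 IC50 comes from a four-parameter logistic fit over a 22-point, 2-fold series, with ADP quantified by ADP-Glo luminescence. Reactions ran at room temperature: compound plus 30 nM KIF18A(1-467)-His for 15 min, then 75 μM ATP (Km) for 15 min. The buffer held pig microtubules at 30 μg/mL and 1 μM taxol.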

T1 sequence (Q8NI77 1-467): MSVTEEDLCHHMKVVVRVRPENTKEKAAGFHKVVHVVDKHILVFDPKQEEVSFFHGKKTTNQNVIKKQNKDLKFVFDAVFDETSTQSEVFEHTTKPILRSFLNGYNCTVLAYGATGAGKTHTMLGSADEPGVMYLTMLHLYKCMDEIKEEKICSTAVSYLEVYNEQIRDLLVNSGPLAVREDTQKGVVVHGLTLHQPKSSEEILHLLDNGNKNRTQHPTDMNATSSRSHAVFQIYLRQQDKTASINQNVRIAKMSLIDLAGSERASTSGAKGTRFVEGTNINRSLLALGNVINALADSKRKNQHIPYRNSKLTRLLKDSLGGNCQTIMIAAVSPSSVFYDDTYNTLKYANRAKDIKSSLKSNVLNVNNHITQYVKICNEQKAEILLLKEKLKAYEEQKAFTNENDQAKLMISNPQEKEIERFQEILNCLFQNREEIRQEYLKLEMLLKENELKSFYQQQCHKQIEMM
T1 sequence (P02550 whole entry partner): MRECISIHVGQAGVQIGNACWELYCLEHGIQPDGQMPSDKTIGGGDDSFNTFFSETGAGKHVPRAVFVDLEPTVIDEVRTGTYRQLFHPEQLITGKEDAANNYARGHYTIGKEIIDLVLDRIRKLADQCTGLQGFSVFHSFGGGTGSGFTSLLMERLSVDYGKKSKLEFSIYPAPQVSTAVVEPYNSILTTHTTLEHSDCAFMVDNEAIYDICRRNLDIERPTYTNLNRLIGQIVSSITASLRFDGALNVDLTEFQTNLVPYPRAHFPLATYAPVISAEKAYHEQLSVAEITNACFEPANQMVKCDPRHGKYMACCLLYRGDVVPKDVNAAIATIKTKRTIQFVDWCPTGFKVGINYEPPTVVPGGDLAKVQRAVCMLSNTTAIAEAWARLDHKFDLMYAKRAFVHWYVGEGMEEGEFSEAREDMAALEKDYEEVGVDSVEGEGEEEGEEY
T1 sequence (P02554 whole entry partner): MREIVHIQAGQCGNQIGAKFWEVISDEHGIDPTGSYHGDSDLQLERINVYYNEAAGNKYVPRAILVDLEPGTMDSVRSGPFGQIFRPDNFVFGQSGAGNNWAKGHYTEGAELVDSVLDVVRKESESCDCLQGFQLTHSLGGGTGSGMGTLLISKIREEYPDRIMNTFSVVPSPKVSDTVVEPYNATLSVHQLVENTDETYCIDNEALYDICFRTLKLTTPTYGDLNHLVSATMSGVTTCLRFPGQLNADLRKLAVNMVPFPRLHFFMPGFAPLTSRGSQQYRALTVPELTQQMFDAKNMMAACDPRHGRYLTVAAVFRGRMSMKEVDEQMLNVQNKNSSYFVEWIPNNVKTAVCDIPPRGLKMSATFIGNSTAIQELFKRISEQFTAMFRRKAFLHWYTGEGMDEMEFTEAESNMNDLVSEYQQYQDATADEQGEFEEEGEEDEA

Structure (SMILES) | IC50 [nM]
C[C@@H]1CN(c2cccc(NC(=O)c3ccc(C(F)CO)nc3N3CCC4(CC3)CC4)n2)CCO1 (stereo partly drawn) [Example 197, 6-(1-Fluoro-2-hydroxyethyl)-N-(6-((R)-2-methylmorpholino)pyridin-2-yl)-2-(6-azaspiro[2.5]octan-6-yl)nicotinamide] | 180
COC(=O)C(F)(C(=O)OC)c1ccc(C(=O)Nc2cccc(N3CCO[C@H](C)C3)n2)c(N2CCC3(CC2)CC3)n1 [Example 198, dimethyl (6-(6-azaspiro[2.5]octan-6-yl)-5-((6-((2R)-2-methyl-4-morpholinyl)-2-pyridinyl)carbamoyl)-2-pyridinyl)(fluoro)propanedioate] | 156
COCC(C)(C)Nc1ccc(C(=O)Nc2cccc(N3CCO[C@H](C)C3)n2)c(N2CCC3(CC2)CC3)n1 [Example 200, 2-(6-azaspiro[2.5]octan-6-yl)-6-((1-methoxy-2-methyl-2-propanyl)amino)-N-(6-((2R)-2-methyl-4-morpholinyl)-2-pyridinyl)-3-pyridinecarboxamide] | 636
CC(C)C1CN(c2cccc(NC(=O)c3ccc(NC(C)(C)CO)nc3N3CCC4(CC3)CC4)n2)CCO1 (stereo not shown) [Example 203, 6-((1-hydroxy-2-methylpropan-2-yl)amino)-N-(6-(2-isopropylmorpholino)pyridin-2-yl)-2-(6-azaspiro[2.5]octan-6-yl)nicotinamide] | 242
CCC1CN(c2cccc(NC(=O)c3ccc(NC(C)(C)CO)nc3N3CCC4(CC3)CC4)n2)CCO1 (stereo not shown) [Example 204, N-(6-(2-ethylmorpholino)pyridin-2-yl)-6-((1-hydroxy-2-methylpropan-2-yl)amino)-2-(6-azaspiro[2.5]octan-6-yl)nicotinamide] | 160
CC(C)(CO)Nc1ccc(C(=O)Nc2cccc(N3CCOC(C(F)(F)F)C3)n2)c(N2CCC3(CC2)CC3)n1 (stereo not shown) [Example 205, 6-((1-hydroxy-2-methylpropan-2-yl)amino)-2-(6-azaspiro[2.5]octan-6-yl)-N-(6-(2-(trifluoromethyl)morpholino)pyridin-2-yl)nicotinamide] | 123
Cc1cc(NC(=O)c2ccc(OCC(N)(CO)C(F)(F)F)nc2N2CCC3(CC2)CC3)nc(N2CCOCC2)c1 (stereo not shown) [Example 208, 6-(2-amino-3,3,3-trifluoro-2-(hydroxymethyl)propoxy)-N-(4-methyl-6-morpholinopyridin-2-yl)-2-(6-azaspiro[2.5]octan-6-yl)nicotinamide] | 692
C[C@@H]1CN(c2cccc(NC(=O)c3ccc(OCCC(C)(C)N)nc3N3CCC4(CC3)CC4)n2)CCO1 [Example 209, 6-(3-amino-3-methylbutoxy)-2-(6-azaspiro[2.5]octan-6-yl)-N-(6-((2R)-2-methyl-4-morpholinyl)-2-pyridinyl)-3-pyridinecarboxamide] | 411
CC(C)(CCO)Nc1ccc(C(=O)Nc2cccc(N3CCO[C@H](CO)C3)n2)c(N2CCC3(CC2)CC3)n1 [Example 210, 2-(6-azaspiro[2.5]octan-6-yl)-6-((4-hydroxy-2-methyl-2-butanyl)amino)-N-(6-((2S)-2-(hydroxymethyl)-4-morpholinyl)-2-pyridinyl)-3-pyridinecarboxamide] | 239
Cc1cc(NC(=O)c2ccc(NC(C)(C)CCO)nc2N2CCC3(CC2)CC3)nc(N2CCOCC2)c1 [Example 211, 2-(6-azaspiro[2.5]octan-6-yl)-6-((4-hydroxy-2-methyl-2-butanyl)amino)-N-(4-methyl-6-(4-morpholinyl)-2-pyridinyl)-3-pyridinecarboxamide] | 142
Cc1cc(NC(=O)c2ccc(N3CC(O)CC3(C)C)nc2N2CCC3(CC2)CC3)nc(N2CCOCC2)c1 (stereo not drawn) [Example 212, 6-(4-hydroxy-2,2-dimethylpyrrolidin-l-yl)-N-(4-methyl-6-morpholinopyridin-2-yl)-2-(6-azaspiro[2.5]octan-6-yl)nicotinamide] | 540
C[C@@H]1CN(c2cccc(NC(=O)c3ccc(N4CC(O)CC4(C)C)nc3N3CCC4(CC3)CC4)n2)CCO1 (stereo partly drawn) [Example 213, 6-(4-hydroxy-2,2-dimethylpyrrolidin-1-yl)-N-(6-((R)-2-methylmorpholino)pyridin-2-yl)-2-(6-azaspiro[2.5]octan-6-yl)nicotinamide] | 523
C[C@@H]1CN(c2cccc(NC(=O)c3ccc(NC(C)(C)CCO)nc3N3CCC4(CC3)CC4)n2)CCO1 [Example 214, 2-(6-azaspiro[2.5]octan-6-yl)-6-((4-hydroxy-2-methyl-2-butanyl)amino)-N-(6-((2R)-2-methyl-4-morpholinyl)-2-pyridinyl)-3-pyridinecarboxamide] | 170
CC(C)(CO)Nc1ccc(C(=O)Nc2cccc(N3CCC(O)CC3)n2)c(N2CCC3(CC2)CC3)n1 [Example 215, 2-(6-azaspiro[2.5]octan-6-yl)-6-((1-hydroxy-2-methyl-2-propanyl)amino)-N-(6-(4-hydroxy-1-piperidinyl)-2-pyridinyl)-3-pyridinecarboxamide] | 330
CC(C)(CO)Nc1ccc(C(=O)Nc2cccc(N3CCC[C@@H](O)C3)n2)c(N2CCC3(CC2)CC3)n1 [Example 216, 2-(6-azaspiro[2.5]octan-6-yl)-6-((1-hydroxy-2-methyl-2-propanyl)amino)-N-(6-((3R)-3-hydroxy-1-piperidinyl)-2-pyridinyl)-3-pyridinecarboxamide] | 80.4
COCC(C)(CO)Nc1ccc(C(=O)Nc2cccc(N3CCO[C@H](C)C3)n2)c(N2CCC3(CC2)CC3)n1 (stereo partly drawn) [Example 217, 6-((1-hydroxy-3-methoxy-2-methylpropan-2-yl)amino)-N-(6-((R)-2-methylmorpholino)pyridin-2-yl)-2-(6-azaspiro[2.5]octan-6-yl)nicotinamide] | 222
C[C@@H]1CN(c2cccc(NC(=O)c3ccc(NS(C)(=O)=O)nc3N3CCC4(CC3)CC4)n2)CCO1 [Example 218, 2-(6-azaspiro[2.5]octan-6-yl)-N-(6-((2R)-2-methyl-4-morpholinyl)-2-pyridinyl)-6-((methylsulfonyl)amino)-3-pyridinecarboxamide] | 150
CC(C)(CO)Nc1ccc(C(=O)Nc2cccc(N3CC(O)CC3(C)C)n2)c(N2CCC3(CC2)CC3)n1 (stereo not shown) [Example 219, N-(6-(4-hydroxy-2,2-dimethylpyrrolidin-1-yl)pyridin-2-yl)-6-((1-hydroxy-2-methylpropan-2-yl)amino)-2-(6-azaspiro[2.5]octan-6-yl)nicotinamide] | 217
CC(C)(CO)Nc1ccc(C(=O)Nc2cccc(N3CCC(O)C3(C)C)n2)c(N2CCC3(CC2)CC3)n1 (stereo not shown) [Example 221, N-(6-(3-hydroxy-2,2-dimethylpyrrolidin-1-yl)pyridin-2-yl)-6-((1-hydroxy-2-methylpropan-2-yl)amino)-2-(6-azaspiro[2.5]octan-6-yl)nicotinamide] | 357
C[C@@H]1CN(c2cccc(NC(=O)c3ccc(NC(CO)(CO)CO)nc3N3CCC4(CC3)CC4)n2)CCO1 [Example 222, 2-(6-azaspiro[2.5]octan-6-yl)-6-((1,3-dihydroxy-2-(hydroxymethyl)-2-propanyl)amino)-N-(6-((2R)-2-methyl-4-morpholinyl)-2-pyridinyl)-3-pyridinecarboxamide] | 88
CNS(=O)(=O)c1ccc(C(=O)Nc2cccc(N3CCO[C@H](C)C3)n2)c(N2CCC3(CC2)CC3)n1 [Example 223, (R)-N-(6-(2-methylmorpholino)pyridin-2-yl)-6-(N-methylsulfamoyl)-2-(6-azaspiro[2.5]octan-6-yl)nicotinamide] | 79.4
C[C@@H]1CN(c2cccc(NC(=O)c3ccc(S(N)(=O)=O)nc3N3CCC4(CC3)CC4)n2)CCO1 [Example 224, 2-(6-azaspiro[2.5]octan-6-yl)-N-(6-((2R)-2-methyl-4-morpholinyl)-2-pyridinyl)-6-sulfamoyl-3-pyridinecarboxamide] | 68.8
C[C@@H]1CN(c2cccc(NC(=O)c3ccc(S(=O)(=O)NC(C)(C)C)nc3N3CCC4(CC3)CC4)n2)CCO1 [Example 225, 2-(6-azaspiro[2.5]octan-6-yl)-N-(6-((2R)-2-methyl-4-morpholinyl)-2-pyridinyl)-6-((2-methyl-2-propanyl)sulfamoyl)-3-pyridinecarboxamide] | 102
CC(C)(CO)Nc1ccc(C(=O)Nc2cccc(NCCO)n2)c(N2CCC3(CC2)CC3)n1 [Example 226, 2-(6-azaspiro[2.5]octan-6-yl)-N-(6-((2-hydroxyethyl)amino)-2-pyridinyl)-6-((1-hydroxy-2-methyl-2-propanyl)amino)-3-pyridinecarboxamide] | 392
Cc1cc(NC(=O)c2ccc(NC(C)(C)CO)nc2N2CCC3(CC2)CC3)nc(N2CCC[C@@H](O)C2)c1 [Example 227, 2-(6-azaspiro[2.5]octan-6-yl)-6-((1-hydroxy-2-methyl-2-propanyl)amino)-N-(6-((3R)-3-hydroxy-1-piperidinyl)-4-methyl-2-pyridinyl)-3-pyridinecarboxamide] | 142
CC(C)(CO)Nc1ccc(C(=O)Nc2cccc(N3CCC[C@H](O)C3)n2)c(N2CCC3(CC2)CC3)n1 [Example 228, 2-(6-azaspiro[2.5]octan-6-yl)-6-((1-hydroxy-2-methyl-2-propanyl)amino)-N-(6-((3S)-3-hydroxy-1-piperidinyl)-2-pyridinyl)-3-pyridinecarboxamide] | 69.7
CC1(O)CCCN(c2cccc(NC(=O)c3ccc(NC(C)(C)CO)nc3N3CCC4(CC3)CC4)n2)C1 (stereo not drawn) [Example 229, 6-((1-hydroxy-2-methylpropan-2-yl)amino)-N-(6-(3-hydroxy-3-methylpiperidin-l-yl)pyridin-2-yl)-2-(6-azaspiro[2.5]octan-6-yl)nicotinamide] | 136
CC(C)(CO)Nc1ccc(C(=O)Nc2cccc(N3CCCC(O)(CO)C3)n2)c(N2CCC3(CC2)CC3)n1 (stereo not shown) [Example 230, 6-((1-hydroxy-2-methylpropan-2-yl)amino)-N-(6-(3-hydroxy-3-(hydroxymethyl)piperidin-1-yl)pyridin-2-yl)-2-(6-azaspiro[2.5]octan-6-yl)nicotinamide] | 114
